The values below come from patent US4609673A, “Carboxylic acid derivatives, processes for the preparation thereof and pharmaceutical compositions containing them” (Boehringer Mannheim GmbH, priority 1984, dated 1986).

The structures appear in SMILES notation.

Test [1] concerns citrate synthase. The note with it: Angew. Chem., 92, 133/1980; cited from earlier work.
The test system of test [2] is HMG-CoA-reductase. The note with it: cited from earlier work.
Test [3] concerns HMG-CoA synthase. The following applies: J. Biol. Chem., 257, 2842/1982; cited from earlier work.
Test [4] relates to Rat hepatocytes. Description: 14C-acetate incorporation into cholesterol (cholesterol biosynthesis) in rat hepatocytes. It counts as cell-based. The following applies: Hepatocyte, end concentration about 10^-5 M, 48 h incubation, DMSO, related to solvent treated control. Here is the method: Rat hepatocytes were isolated according to Berry and Friend (J. Cell Biol., 43, 506-520 (1969)) and cultured as described by Davis et al. (J. Biol. Chem., 254, 2010-2016 (1979)). 2-^14 C-Acetate was used as a precursor for determination of the cholesterol biosynthesis. Newly synthetized cholesterol was determined by liquid scintillation spectrometry after extraction of radiolabelled sterols from the culture medium (Can. J. Biochem. Physiol., 37, 912-917 (1959)). The test compounds were dissolved in dimethylsulfoxide. 1 μl of this solution was given to 1 ml of the culture medium. The percentage of inhibition of ^14 C-acetate incorporation is related to a solvent treated control.
The compounds listed in the following table were tested with respect to their effect on the rate hepatocytes according to the method mentioned above. The compounds were dissolved in DMSO. 1 μl of this solution was added to 1 ml of the culture medium.
The end concentration was about 10^-5 M, the period of the incubation was 48 h. The ^14 C-acetate incorporation in cholesterol was determined.

On to `CC(C)(COP(=O)(O)OP(=O)(O)OC[C@H]1O[C@@H](n2cnc3c(N)ncnc32)[C@H](O)[C@@H]1OP(=O)(O)O)[C@@H](O)C(=O)NCCC(=O)NCCSCCC(O)(CC(=O)O)C(=O)O` (stereo partly drawn) [3,4-dicarboxy-3-hydroxybutylcoenzyme A], for which the “inhibiting action on the enzyme citrate synthase (in words)” value in test [1] is “exerts an inhibiting action”.

In the case of `CC(O)(CCSCCNC(=O)CCNC(=O)[C@H](O)C(C)(C)COP(=O)(O)OP(=O)(O)OC[C@H]1O[C@@H](n2cnc3c(N)ncnc32)[C@H](O)[C@@H]1OP(=O)(O)O)CC(=O)O` (stereo partly drawn) [3-hydroxy-3-methyl-4-carboxybutyl-coenzyme A], in test [2] (FEBS Letters, 128, 145/1981), the “inhibiting action on the enzyme HMG-CoA-reductase (in words)” value is on record as “possesses an inhibiting action”.

Regarding `CC(=O)CCSCCNC(=O)CCNC(=O)[C@H](O)C(C)(C)COP(=O)(O)OP(=O)(O)OC[C@H]1O[C@@H](n2cnc3c(N)ncnc32)[C@H](O)[C@@H]1OP(=O)(O)O` [3-oxobutyl-coenzyme A], in test [3], the “substrate for HMG-CoA synthase (in words)” value is “substrate”.

In test [4], `CC[C@H](C)C(=O)O[C@H]1CCC=C2C=C[C@H](C)[C@H](CC[C@@H]3C[C@@H](O)CC(=O)O3)[C@H]21` [Compactin, 2-Methylbutanoic acid 1,2,3,7,8,8α-hexahydro-7-methyl-8-[2-(tetrahydro-4-hydroxy-6-oxo-2H-pyran-2-yl)ethyl]-1-naphthalenyl ester] displayed an inhibition at 10 µM of 59%. Besides, the “inhibitor of HMG-CoA reductase (in words)” value in test [2] (comparison compound) is “potent inhibitor”.

Regarding `CC(O)(CCSCCNC(=O)CCNC(=O)C(O)C(C)(C)CO)CC(=O)O` (stereo not drawn) [Example 2, 9,13-Diaza-10,14-dioxo-6-thia-3,15,17-trihydroxy-3,16,16-trimethylheptadecanoic acid], in test [4], 10 µM produced 33% inhibition.

In the case of `CCOC(=O)CC(C)(C)CCSCCNC(=O)CCNC(=O)C(O)C(C)(C)CO` (stereo not drawn) [Example 11, 9,13-Diaza-15,17-dihydroxy-10,14-dioxo-3,3,16,16-tetramethyl-6-thiaheptadecanoic acid ethyl ester], the inhibition at 10 µM in test [4] turned out to be 28%.

In test [4], `CC(CC(=O)NCCSCCC(C)(C)CC(=O)O)NC(=O)c1ccccc1` (stereo not drawn) [Example 15d, 9,13-diaza-10,14-dioxo-14-phenyl-6-thia-3,3,12-trimethyltetradecanoicacid] came in with an inhibition at 10 µM of 12%.

In turn, `O=C(O)CCCCSCCNC(=O)CNCc1ccccc1` [Example 16, 9,12-Diaza-10-oxo-13-phenyl-6-thiatridecanoic acid] registered an inhibition at 10 µM in test [4] of 10%.

Usually inhibition stands for the change of the read-out against control, counted positive when it falls.
